System: 3T3 fibroblasts
Assay: Measurement of EGF activities using 3T3 fibroblasts, corrected to NIBSC EGF standard product
Assay type: cell-based
Conditions: recombinant EGF of purity 90% or more
Method: According to an embodiment of the present invention, the EGF may be an EGF which is prepared from a recombinant E. coli or a plant and is purified to a purity of 90% or more.

## epidermal growth factor [EGF, peptide of 6,200 Da with 53 amino acid residues, prepared from recombinant E. coli or a plant, purity 90% or more]
  EGF activity per mg: one million
